The text below walks through data of patent US12625142B2, “Assay for measuring binding affinity for cardiolipin of biologically active compounds” (Latvian Institute of Organic Synthesis, priority 2020, dated 2026).

Where a name gives a salt, the structure may show the parent alone.

A short description of this test: competition binding assay for cardiolipin with fluorescent probe I and CL-DOPC liposomes (25:75 mol %). The conditions noted are these: for EC50: 20 mM HEPES buffer, 2.5 μM CL, 5 μM I, means ± S.D. from 3 independent experiments; for relative binding affinity for CL within the studied set (in words): comparison of EC50 values; for EC50 range (in words): pH 7.4 and 6.8; for effect of pH change on interaction with CL: pH 7.4 versus 6.8. Here is the method: Lipid vesicles may be composed of CL and a helper phospholipid (preferentially a phosphatidylcholine) or may have a more complex composition with several phospholipids, provided that the formulation is stable in the used medium. […] [18]
Final concentration of the fluorescent probe I may range from 0.2 μM to 25 μM. Optimal incubation temperature is 37° C. because it represents physiological temperature and allows shortening of the incubation time.
A fluorimeter is required that is capable of scanning emission intensity at a desired wavelength, as well as a plate shaker-thermostat. Assay is carried out in 96-well microplates for fluorescence-based assays. […]
Also place a triplicate of CL containing lipid vesicles without a ligand (vehicle); • 3. Place the 96-well microplate in a plate shaker-thermostat for 10 min (500 RPM, 37° C.). • 4. Add appropriate amount of I stock solution (I final concentration 5 μM) to the wells, including wells containing vehicle, and mix gently with a micro pipette by sucking the solution gently up and down (approximately 5 times); • 5. Incubate for 15 min in a plate shaker-thermostat (500 RPM, 37° C.); • 6. Measure fluorescence intensity at an excitation and emission wavelength of 497 and 529 nm, respectively; • 7. […] Plot the normalized fluorescence intensity against the concentration of the ligand on a logarithmic scale; • 9. Fit the titration curve with a suitable fitting model to calculate EC50 values.

As usually defined, the EC50 is the concentration giving half of the maximal effect. A lower EC50 goes with an effect from little substance. Turning to `Cl.N` [Example 2, Ammonium chloride], under “pH 7.4, 20 mM HEPES, FIG. 1B”, the “fold lower affinity for CL than Ca^2+ ions” value is 23 fold. Under “pH = 7.4”, this molecule registered an EC50 of 31853 ± 2.3 µM.
Regarding `[Ca+2].[Cl-].[Cl-]` [Example 3, Calcium chloride], the “lower EC50 than Mg^2+” value (pH 7.4, 20 mM HEPES, FIG. 1B) is “≈ 30%”. In addition, the EC50 reads like this: (pH = 6.8) 1290 ± 130 µM; (pH = 7.4) 1334 ± 10.1 µM.
`[Cl-].[Cl-].[Mg+2]` [Example 4, Magnesium chloride] had an EC50 (pH = 7.4) of 1930 ± 20.5 µM.
`COc1cccc2c1C(=O)c1c(O)c3c(c(O)c1C2=O)C[C@@](O)(C(=O)CO)C[C@@H]3O[C@H]1C[C@H](N)[C@@H](O)[C@H](C)O1` [Example 5, (8S,10S)-10-(((2R,4S,5R,6S)-4-amino-5-hydroxy-6-methyltetrahydro-2H-pyran-2-yl)oxy)-6,8,11-trihydroxy-8-(2-hydroxyacetyl)-1-methoxy-7,8,9,10-tetrahydrotetracene-5,12-dione hydrochloride] displayed an EC50 (pH = 6.8) of 5.86 ± 0.25 µM and an EC50 (pH = 7.4) of 6.94 ± 0.9 µM.
`COc1cccc2c1C(=O)c1c(O)c3c(c(O)c1C2=O)C[C@@](O)(C(C)=O)C[C@@H]3O[C@H]1C[C@H](N)[C@H](O)[C@H](C)O1` [Example 6, (8S,10S)-8-acetyl-10-(((2R,4S,5S,6S)-4-amino-5-hydroxy-6-methyltetrahydro-2H-pyran-2-yl)oxy)-6,8,11-trihydroxy-1-methoxy-7,8,9,10-tetrahydrotetracene-5,12-dione hydrochloride]: the midpoint of the response (pH = 7.4), the EC50, lay at 4.35 ± 1.25 µM.
With `[H]/N=C(/N)N[C@H]1[C@H](O)[C@@H](O)[C@H](O[C@@H]2O[C@@H](C)[C@](O)(C=O)[C@H]2O[C@@H]2O[C@@H](CO)[C@H](O)[C@@H](O)[C@@H]2NC)[C@@H](N/C(N)=N\[H])[C@@H]1O` [Example 10, 2-[(1R,2R,3S,4R,5R,6S)-3-(diaminomethyldeneamino)-4-[(2R,3R,4R,5S)-3-[(2S,3S,4S,5R,6S)-4,5-dihydroxy-6-(hydroxymethyl)-3-(methylamino)oxan-2-yl]oxy-4-formyl-4-hydroxy-5-methyloxolan-2-yl]oxy-2,5,6-trihydroxycyclohexyl]guanidine], the “relative binding affinity for CL within the studied set (in words)” value (shortened to “relative binding affinity”) (20 mM HEPES, listed as streptomycin) is “lowest affinity for CL”. The midpoint of the response (pH = 7.4), the EC50, lay at 9.82 ± 1.76 µM.
Take `NC[C@H]1O[C@H](O[C@H]2[C@H](O)[C@@H](O[C@H]3O[C@H](CO)[C@@H](O)[C@H](N)[C@H]3O)[C@H](N)C[C@@H]2N)[C@H](N)C[C@@H]1O` [Example 12, (2S,3R,4S,5S,6R)-4-amino-2-{[(1S,2S,3R,4S,6R)-4,6-diamino-3-{[(2R,3R,5S,6R)-3-amino-6-(aminomethyl)-5-hydroxyoxan-2-yl]oxy}-2-hydroxycyclohexyl]oxy}-6-(hydroxymethyl)oxane-3,5-diol]: the EC50 (pH = 7.4) was found to be 4.37 ± 0.32 µM.
For `CCCCCCCCC[P+](c1ccccc1)(c1ccccc1)c1ccccc1.[Br-]` [Example 13, Nonyltriphenylphosphonium bromide], the “effect of pH change on interaction with CL” value is “affected by changes of pH”. In addition, under “20 mM HEPES”, the “EC50 range (in words)” value was “micromolar range” and the “relative binding affinity” value is given as “lower affinities than studied aminoglycosides or anthracyclines”. Moreover, the “affinity for CL higher than that of dodecyltrimethylammonium chloride” value (pH 7.4, 20 mM HEPES, FIG. 2A) is listed as “≈ 30%”. Further, under “pH = 6.8”, the midpoint of the response, the EC50, lay at 36.6 ± 2.93 µM. This molecule yielded a concentration giving a half-maximal response (EC50) (pH = 7.4) of 19.8 ± 0.75 µM.
Take `CCCCCCCCCCCC[N+](C)(C)C.[Cl-]` [Example 14, Dodecyltrimethylammonium chloride]: the “effect of pH change on interaction with CL” value is “affected by changes of pH”. For the same molecule, for the setting “20 mM HEPES”, the “EC50 range (in words)” value is recorded as “micromolar range” and the “relative binding affinity” value was “lower affinities than studied aminoglycosides or anthracyclines”. Also, the EC50 (pH = 6.8) is 74.4 ± 8.47 µM. For the setting “pH = 7.4”, the EC50 stood at 30.7 ± 2.75 µM.
Where the note is “pH = 7.4”, “(2R,3R,4S,5S,6S)-5-amino (((2R,3S,4R,4aR,6S,7R,8aS)-7-amino-6-(((1R,2R,3S,4R,6S)-4,6-diamino-2,3-dihydroxycyclohexyl)oxy)-4-hydroxy-3-(methylamino)octahydropyrano[3,2-b]pyran-2-yl)oxy)-6-(hydroxymethyl)tetrahydro-2H-pyran-3,4-diol sulfate [Example 9]” registered an EC50 of 3.34 ± 0.95 µM.
Regarding Cytochrome c [Example 1], the “relative binding affinity” value (20 mM HEPES) was “the highest binding affinity for CL”. The EC50 came to 0.28 ± 0.02 µM (pH = 6.8) and 0.32 ± 0.06 µM (pH = 7.4).
